Test results published in BindingDB's records for patent WO2023001061 (Jingrui Biopharma, 2023).

Molecular target: CDK-activating kinase assembly factor MAT1/Cyclin-H/Cyclin-dependent kinase 7 (Homo sapiens, UniProt P50613)
Assay: In Vitro Kinase assay (CDK7) and IC 50 determination
Experimental: The kinase assay was carried out by Sundia MediTech Co., Ltd.

Chain of CDK-activating kinase assembly factor MAT1/Cyclin-H/Cyclin-dependent kinase 7 (P51946 whole entry): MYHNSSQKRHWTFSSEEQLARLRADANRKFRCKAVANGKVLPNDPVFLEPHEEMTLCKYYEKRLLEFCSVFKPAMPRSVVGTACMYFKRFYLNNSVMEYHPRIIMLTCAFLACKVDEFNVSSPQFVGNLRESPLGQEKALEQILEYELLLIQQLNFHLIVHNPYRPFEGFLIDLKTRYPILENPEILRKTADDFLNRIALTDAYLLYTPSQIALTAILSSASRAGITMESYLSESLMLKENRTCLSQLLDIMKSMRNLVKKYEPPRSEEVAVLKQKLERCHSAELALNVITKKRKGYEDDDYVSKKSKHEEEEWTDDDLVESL
Chain of CDK-activating kinase assembly factor MAT1/Cyclin-H/Cyclin-dependent kinase 7 (P50613 whole entry): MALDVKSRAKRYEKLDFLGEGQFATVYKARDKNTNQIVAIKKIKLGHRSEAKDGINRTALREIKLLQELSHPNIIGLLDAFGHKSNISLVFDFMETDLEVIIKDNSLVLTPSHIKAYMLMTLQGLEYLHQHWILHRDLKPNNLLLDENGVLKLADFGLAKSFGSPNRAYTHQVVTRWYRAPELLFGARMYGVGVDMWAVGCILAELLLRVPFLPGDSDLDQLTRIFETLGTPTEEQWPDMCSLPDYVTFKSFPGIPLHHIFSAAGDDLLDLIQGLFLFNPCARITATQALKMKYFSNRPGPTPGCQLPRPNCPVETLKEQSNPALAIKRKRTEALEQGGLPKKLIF
Chain of CDK-activating kinase assembly factor MAT1/Cyclin-H/Cyclin-dependent kinase 7 (P51948 whole entry, further chain): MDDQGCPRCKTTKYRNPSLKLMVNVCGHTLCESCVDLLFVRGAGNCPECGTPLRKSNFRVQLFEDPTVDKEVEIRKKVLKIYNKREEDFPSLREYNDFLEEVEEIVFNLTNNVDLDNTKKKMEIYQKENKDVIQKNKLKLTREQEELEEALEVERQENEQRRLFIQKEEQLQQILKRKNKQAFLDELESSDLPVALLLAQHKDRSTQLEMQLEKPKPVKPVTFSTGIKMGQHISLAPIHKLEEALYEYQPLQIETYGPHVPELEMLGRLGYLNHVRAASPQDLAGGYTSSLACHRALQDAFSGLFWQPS

Row | SMILES | IC50 [nM]
1 | CC(C)c1cnn2c(NCC3CCCN3C)cc(OC3CCN(C)CC3)nc12 (stereo not given) [WO2023001061, Example 8] | < 500
2 | CC(C)c1cnn2c(NCC3CCCN3C)nc(OC3CCN(C)CC3)nc12 (stereo not given) [WO2023001061, Example 23] | < 500
3 | CC(C)c1cnn2c(NCc3ccnn3C(C)C)cc(NC[C@H]3CCNC[C@@H]3O)nc12 [WO2023001061, Example 10] | < 50
4 | CC(C)c1cnn2c(NCc3nc4cc(Cl)ccc4s3)cc(NC[C@H]3CCNC[C@@H]3O)nc12 [WO2023001061, Example 39] | < 50
5 | CC(C)c1cnn2c(NCc3ccnn3C3CC3)cc(NC[C@H]3CCNC[C@@H]3O)nc12 [WO2023001061, Example 11] | < 50
6 | CC(C)c1cnn2c(NCc3ccnn3C)cc(NC[C@H]3CCNC[C@@H]3O)nc12 [WO2023001061, Example 6] | < 50
7 | CC(C)c1cnn2c(NCc3cccnc3N(C)C)cc(NC[C@H]3CCNC[C@@H]3O)nc12 [WO2023001061, Example 15] | < 50
8 | CC(C)c1cnn2c(NCc3ccnn3C)cc(OC3CCN(C)CC3)nc12 [WO2023001061, Example 7] | < 50
9 | CC(C)c1cnn2c(NCc3nc(C4CC4)cs3)cc(NC[C@H]3CCNC[C@@H]3O)nc12 [WO2023001061, Example 48] | < 50
10 | CC(C)c1cnn2c(NCc3nccn3C)cc(NC[C@H]3CCNC[C@@H]3O)nc12 [WO2023001061, Example 14] | < 50
11 | CC(C)c1cnn2c(NCc3nc4ccccc4n3C)cc(NC[C@H]3CCNC[C@@H]3O)nc12 [WO2023001061, Example 36] | < 50
12 | CC(C)c1cnn2c(NCc3nc4cc(C(F)(F)F)ccc4s3)cc(NC[C@H]3CCNC[C@@H]3O)nc12 [WO2023001061, Example 38] | < 50
13 | CC(C)c1cnn2c(NCc3ccccc3N(C)C)cc(OC3CCN(C)CC3)nc12 [WO2023001061, Example 1] | < 50
14 | CC(C)c1cnn2c(NCc3ccn(C)n3)cc(NC[C@H]3CCNC[C@@H]3O)nc12 [WO2023001061, Example 29] | < 50
15 | CC(C)c1cnn2c(NCc3nc4cc(N(C)C)ccc4s3)cc(NC[C@H]3CCNC[C@@H]3O)nc12 [WO2023001061, Example 4] | < 50
16 | CC(C)c1cnn2c(NCc3ccn[nH]3)cc(NC[C@H]3CCNC[C@@H]3O)nc12 [WO2023001061, Example 9] | < 50

Next, values leading:

Row | IC50 [nM] | SMILES
17 | < 50 | CC(C)c1cnn2c(NCc3ccc4cccc(N(C)C)c4n3)cc(NC[C@H]3CCNC[C@@H]3O)nc12 [WO2023001061, Example 5]
18 | < 50 | CC(C)c1cnn2c(NCC3CCCN3C)cc(NC[C@H]3CCNC[C@@H]3O)nc12 (stereo not given in full) [WO2023001061, Example 2]
19 | < 50 | CC(C)c1cnn2c(NCc3cncn3C)cc(NC[C@H]3CCNC[C@@H]3O)nc12 [WO2023001061, Example 13]
20 | < 50 | CC(C)c1cnn2c(NCc3nc4ccccc4s3)cc(NC[C@H]3CCNC[C@@H]3O)nc12 [WO2023001061, Example 30]
21 | < 50 | CC(C)c1cnn2c(NCc3ccnn3C)nc(OC3CCN(C)CC3)nc12 [WO2023001061, Example 26]
22 | < 50 | CC(C)c1cnn2c(NCc3nn(C)c4ccccc34)cc(NC[C@H]3CCNC[C@@H]3O)nc12 [WO2023001061, Example 35]
23 | < 50 | Cc1cc(CNc2nc(OC3CCN(C)CC3)nc3c(C(C)C)cnn23)n(C2CC2)n1 [WO2023001061, Example 28]
24 | < 50 | CC(C)c1cnn2c(NCc3nccs3)cc(NC[C@H]3CCNC[C@@H]3O)nc12 [WO2023001061, Example 31]
25 | < 50 | CC(C)c1cnn2c(NCc3ccc4cccc(N(C)C)c4n3)nc(OC3CCN(C)CC3)nc12 [WO2023001061, Example 27]
